Reference: US6562332B2, “Attractants of beneficial insects” (Iowa State University Research Foundation, Inc., priority 1999, dated 2003)
“Also recorded” adds a separate entry of the source.

Tests used:
[1] = tested on: antennae of Coleomegilla maculata; test: Electroantennogram (EAG) responses of Coleomegilla maculata antennae; settings: for EAG response: C. maculata antennae, both sexes; for dose eliciting significant EAG responses from female antennae: C. maculata female antennae; for dose eliciting significant EAG responses from female antennae / EAG response threshold of female antennae / dose at which EAG of male antennae reached saturation: dose-response; for dose at which EAG saturation occurred / minimum dose for a significant EAG response: both male and female antennae; for EAG response threshold of female antennae: C. maculata female antennae versus male
Procedure: Adults of both sexes were anesthetized by placing them at −20° C., then the abdomen and elytra of adults were cut off with a pair of fine scissors. Dissecting tools were rinsed with acetone several times between dissections to avoid cross-contamination. The dissected parts were extracted in a 1-ml vial containing 500 μl of hexane for two hours. Ten males and females were dissected and extracted. The extracts were concentrated to 200 μl under a mild stream of N2. Approximately 20 μl of the extracts, equivalent to one adult, was used for the EAG tests.
(§1) Both sexes of C. maculata were handled vigorously, and pressed against a piece of filter paper (Whatman, No. 1), resulting in reflex bleeding production of orange colored fluid excreted through the joints of the legs, that was absorbed into the filter paper. Fluids from 20 beetles were collected. The filter paper used for the collection was then cut into small pieces and placed in a 2-ml vial and extracted with 200 μl of hexane for one hour. A volume of 10 μl of the concentrated extract was used for EAG tests.
(§2) Corn (Pioneer, Hybrid 3489) was grown in the greenhouse under approx. 25° C. and 75% humidity, with natural light supplemented by 400 Watt high pressure sodium lights. The three-leaf stage of plants was used for volatile collections, because this life stage is infested by corn leaf aphids (Bing, J. W., et al., 1992, J. Econ. Entomol.21:223-234) and it is also a stage searched by these predatory species. Corn leaves were removed from plants, and ca. 15 g placed in a 0.5-1 glass collector with two openings on each side. A stream of purified air passing through a freshly activated charcoal filter was blown into the inlet of the collector, through the corn leaves, then exited through the outlet connected to a Tenax trap. The trap consisted of a Pasteur pipette (5 cm long and 0.5 cm diameter) packed with 300 mg of Tenax (20-35 mesh, Alltech, Ill.). The flow rate of the air was 150 ml/min from the outlet of the Tenax trap, and the volatiles were collected for 18 hours. The trapped volatiles were eluted with HPLC-grade hexane. The extracts from three collections were combined and concentrated to 100 μl. Ten microliters of extracts were used for each EAG test.
(§3) Dried seeds and flowers of catnip, Nepeta cataria, were purchased from a local pet store. For EAG tests, approx. 0.2 mg of dried plant material was homogenized, then extracted by adding 500 μl of hexane. The extract was poured through a funnel with filter paper (Whatman No.1), and the residue was discarded. The extract was concentrated to 100 μl, under a mild stream of N2. The extract was then stored at −20° C. until used in EAG tests.
EAG recordings were made by connecting an electrogel-filled (Spectro 360, Parker Laboratory, New Jersey) glass-pipette Ag/AgCl electrode to the head of an excised beetle or lacewing. A recording electrode filled with the same electrogel connected to a high-impedance DC amplifier with automatic baseline drift compensation, was placed in contact with the tip of their antennae (intact). Antennal responses to various chemical stimuli were first recorded for a series of commercial synthetic compounds representing known corn leaf volatiles. Then, male and female body extracts of C. maculata, reflex bleeding extracts, aphid alarm pheromone and catnip extracts were tested. A second series of EAG tests was then conducted including dose-response series using selected EAG-active compounds from the first test. Serial dilutions of the tested compounds were made in redistilled HPLC-grade hexane at dosages ranging from 0.1 μg to 1000 μg, except α-terpineol, for which methylene chloride was used. The tested compounds and extracts were applied to filter-paper strips (0.5×2.5 cm, Whatman No.1) in 10 μl of solvent, except as otherwise noted. The filter-paper strips were inserted into Pasteur pipettes (15 cm long). Control puffs of air were applied after each puff of a test stimulus. […]

Coleomegilla maculata = test: Field trapping test in an alfalfa field, C. maculata catches; type: in vivo; settings: traps baited with 50 mg
Procedure: (§4) A field trapping test was conducted in an alfalfa field in Ames, Iowa. Synthetic compounds at a dose of 50 mg were prepared in hexane or methylene chloride. Medical peerless cotton rolls (5 cm long, 100% cotton) were used as dispensers, and the traps used were similar to the Rebell Trap (Great Lakes IPM, Mich.). The trap was hung from the bent end of an electric farm post, 1.2 m above the ground. Within a replicate (N=3), traps were set at least 10 m apart. The traps were checked daily, and trap position within a series was randomized to minimize the effects of habitat heterogenity.

Chrysoperla carnea = test: Field trapping test in an alfalfa field, C. carnea catches; type: in vivo; settings: traps baited with 50 mg
Procedure: as §4

[2] = tested on: antennae of Chrysoperla carnea; test: Electroantennogram (EAG) responses of Chrysoperla carnea antennae; settings: for EAG response: C. carnea antennae
Procedure: as §1, §2, §3
EAG recordings were made by connecting an electrogel-filled (Spectro 360, Parker Laboratory, New Jersey) glass-pipette Ag/AgCl electrode to the head of an excised beetle or lacewing. A recording electrode filled with the same electrogel connected to a high-impedance DC amplifier with automatic baseline drift compensation, was placed in contact with the tip of their antennae (intact). Antennal responses to various chemical stimuli were first recorded for a series of commercial synthetic compounds representing known corn leaf volatiles. Then, male and female body extracts of C. maculata, reflex bleeding extracts, aphid alarm pheromone and catnip extracts were tested. A second series of EAG tests was then conducted including dose-response series using selected EAG-active compounds from the first test. Serial dilutions of the tested compounds were made in redistilled HPLC-grade hexane at dosages ranging from 0.1 μg to 1000 μg, except α-terpineol, for which methylene chloride was used. The tested compounds and extracts were applied to filter-paper strips (0.5×2.5 cm, Whatman No.1) in 10 μl of solvent, except as otherwise noted. The filter-paper strips were inserted into Pasteur pipettes (15 cm long). Control puffs of air were applied after each puff of a test stimulus. The response to the air puff was used to normalize beetle or lacewing responses relative to the tested stimuli. The average EAG response to the air puff from antennae of C. maculata and C. carnea was 0.05±0.003 mV (n=30) and 0.02±0.001 mV (n=27), respectively. The relative EAG response of each stimulus was normalized by dividing the amplitude of the test stimulus by the mean of the response to the control puff. The sequence of exposure of each stimulus to each antenna was randomly defined.

C. cognata = settings: Boo et al. 1998; cited from earlier work
Hippodamia convergens = settings: behavioral test; cited from earlier work
[3] = tested on: Coccinella septempunctata; settings: Nakamuta 1991; cited from earlier work
Harmonia axyridis = settings: behavioral test; cited from earlier work
C. carnea = settings: earlier study, Flint et al. 1979; cited from earlier work

Row | Structure (SMILES) | EAG response [1] | trap catches / attraction of C. maculata in field test (Coleomegilla maculata) | EAG response ([2]; both sexes) | EAG response threshold of female antennae [1] | other results
1 | C=CC(O)CCCCC (stereo not shown) [1-octen-3-ol, 1-Octen-3-ol] | EAG responses | – | – | – | difference in EAG response between male and female antennae ([1]; C. maculata, male relative to female): significantly higher EAG response; also recorded: Sexual differences
2 | OCCc1ccccc1 [2-phenylethanol, 2-Phenylethanol] | significantly higher; also recorded: highest EAG responses | significantly attracted; also recorded: highly attractive | significant response; also recorded: highly sensitive; also recorded: most strongly | – | trap catches / attraction of C. carnea in field test (Chrysoperla carnea): significantly attracted; also recorded: highly attractive; dosage eliciting significant EAG responses ([2]; C. carnea, antennae of both sexes): 10 µg; dose eliciting significant EAG responses from female antennae [1]: 10 µg
3 | CC1=CO[C@@H](O)[C@H]2[C@@H]1CC[C@@H]2C [(1R,4aS,7S,7aR)-nepetalactol, reference compound] | responded; also recorded: significant EAG responses | – | responded; also recorded: significant EAG responses | – | dose at which EAG saturation occurred ([1]; C. maculata): 100 µg; minimum dose for a significant EAG response ([1]; C. maculata): 100 µg
4 | CC1=COC(=O)[C@H]2[C@@H]1CC[C@@H]2C [(4aS,7S,7aR)-nepetalactone, reference compound] | responded; also recorded: relatively higher EAG response; also recorded: significant EAG responses | – | responded; also recorded: significant EAG responses | higher thresholds | EAG response of female antennae ([2]; C. carnea female antennae): greater; attraction of adult C. cognata in the field (C. cognata): attracted; dose at which EAG saturation occurred ([1]; C. maculata): 100 µg; minimum dose for a significant EAG response ([1]; C. maculata): 100 µg
5 | C=CC(=C)CC/C=C(\C)CCC=C(C)C [(E)-β-farnesene, (E)-β-Farnesene] | significantly higher; also recorded: highest EAG responses | no differences in catches | significant response; also recorded: increased with increasing doses; also recorded: highly sensitive; also recorded: most strongly | – | dose of highest EAG response ([2]; C. carnea, both sexes, dose-response): 1000 µg; attraction of Hippodamia convergens (Hippodamia convergens): attracted; searching behaviors of Coccinella septempunctata [3]: does not elicit searching behaviors; EAG response of male antennae ([1]; C. maculata male antennae): as high as those in response to aphid sex pheromone; dose at which EAG of male antennae reached saturation ([1]; C. maculata male antennae): 100 µg; attraction of Harmonia axyridis (Harmonia axyridis): attracted
6 | CC/C=C\CCO [(Z)-3-hexenol, (Z)-Hexenol] | EAG responses | – | relatively lower EAG responses | higher thresholds | –
7 | CCCCCCO [hexanol, 1-Hexanol] | EAG responses | – | – | – | –
8 | CC1=CCC(C(C)(C)O)CC1 (stereo not drawn) [α-terpineol, α-Terpineol] | significantly higher; also recorded: highest EAG responses | Significant catches | relatively lower EAG responses | higher thresholds | trap catches / attraction of C. maculata in field test (Coleomegilla maculata; listed as a-terpineol): attracted; dose eliciting significant EAG responses from female antennae [1]: 10 µg; dose at which EAG of male antennae reached saturation ([1]; C. maculata male antennae): 100 µg
9 | C=C1CC/C=C(\C)CC[C@@H]2[C@@H]1CC2(C)C [β-caryophyllene, β-Caryophyllene] | highest EAG responses | – | relatively low EAG response | – | trap catches / attraction of C. carnea in field test (Chrysoperla carnea): low catches; attraction of adults of C. carnea in the field (C. carnea): acts as an attractant
